Reference: ChEMBL document CHEMBL1201862, “PubChem BioAssay data set” (2004)
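The compound was tested at five concentrations on cells cultured in 96-well plates, with a 48-hour exposure period. At the GI50, growth is halved.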 Activity calls are given as the source filed them. Rule as the data show it: active = GI50 up to about 1.1 µM and inactive = higher. Where a SMILES comes first, the peptide text is derived from it. [ ]: non-standard residue; d: D form. The star is where a group is joined. ξ: configuration not given here. NMeF = CN[CH](Cc1ccccc1)C(=O)O; ξNMe2Val = CC(C)C(C(=O)*)N(C)C; NMeV = CN[CH](C(=O)O)C(C)C; OtBu = CC(C)(C)O*

Key:
Assay in all cases: growth of human tumour cells (NCI), 48 h
COLO 205 = system: COLO 205
EKVX = system: EKVX
HCC 2998 = system: HCC 2998
HCT-15 = system: HCT-15
IGROV-1 = system: IGROV-1
K562 = system: K562
MOLT-4 = system: MOLT-4
NCI-H23 = system: NCI-H23
OVCAR-8 = system: OVCAR-8
SK-MEL-28 = system: SK-MEL-28
SK-MEL-2 = system: SK-MEL-2
SR = system: SR
SW-620 = system: SW-620
TK-10 = system: TK-10
CAKI-1 = system: CAKI-1
HOP-62 = system: HOP-62

SMILES	GI50 (COLO 205)	GI50 (EKVX)	GI50 (HCC 2998)	GI50 (HCT-15) [µM]	GI50 (IGROV-1)	GI50 (K562)	GI50 (MOLT-4)	GI50 (NCI-H23)	GI50 (OVCAR-8)	GI50 (SK-MEL-28)	GI50 (SK-MEL-2)	GI50 (SR)	GI50 (SW-620)	GI50 (TK-10)	GI50 (CAKI-1)	GI50 (HOP-62)
C/C(=C1/CCC/C(=C(/C)c2ccccc2)C1=O)c1ccccc1	65.6 µM (inactive)	45.8 µM (inactive)	46.3 µM (inactive)	31.6	79.4 µM (inactive)	18.3 µM (inactive)	21.5 µM (inactive)	27.5 µM (inactive)	41.7 µM (inactive)	36.3 µM (inactive)	15.1 µM (inactive)	14.6 µM (inactive)	80 µM (inactive)	> 100 µM (inactive)		
CC1=CC2CCC1(C)C/C2=C(/C)OC=O (stereo not drawn)	> 100 µM (inactive)	> 100 µM (inactive)		> 100	> 100 µM (inactive)	> 100 µM (inactive)	> 100 µM (inactive)	> 100 µM (inactive)	> 100 µM (inactive)	> 100 µM (inactive)	> 100 µM (inactive)	> 100 µM (inactive)	> 100 µM (inactive)	> 100 µM (inactive)	> 100 µM (inactive)	> 100 µM (inactive)
CNC(=O)NCCN1N=C(C)/C(=C\c2ccccc2)CC1=O			> 100 µM (inactive)		> 100 µM (inactive)	> 100 µM (inactive)	> 100 µM (inactive)	> 100 µM (inactive)	> 100 µM (inactive)	> 100 µM (inactive)	> 100 µM (inactive)	> 100 µM (inactive)	> 100 µM (inactive)	> 100 µM (inactive)	> 100 µM (inactive)	> 100 µM (inactive)
O=S1(=O)COc2ccccc2-c2ncncc21	> 100 µM (inactive)	> 100 µM (inactive)	> 100 µM (inactive)	> 100	> 100 µM (inactive)	> 100 µM (inactive)	> 100 µM (inactive)	> 100 µM (inactive)	> 100 µM (inactive)	> 100 µM (inactive)		> 100 µM (inactive)	> 100 µM (inactive)	> 100 µM (inactive)	> 100 µM (inactive)	> 100 µM (inactive)
CCC(Oc1ccc(OC)c2c1C(=O)CCC2)C(=O)O (stereo not drawn)	> 100 µM (inactive)	> 100 µM (inactive)	> 100 µM (inactive)	> 100	> 100 µM (inactive)	> 100 µM (inactive)	> 100 µM (inactive)	> 100 µM (inactive)	> 100 µM (inactive)	> 100 µM (inactive)	> 100 µM (inactive)	> 100 µM (inactive)	> 100 µM (inactive)	> 100 µM (inactive)		> 100 µM (inactive)
O=C1C2[C@@H](C(=O)N1c1ccc(Br)cc1)C13C(=CC2([N+](=O)[O-])[C@@H]2C(=O)N(c4ccc(Br)cc4)C(=O)[C@@H]21)c1ccccc1N3c1ccccc1 (stereo partly drawn)	25.8 µM (inactive)	> 100 µM (inactive)	> 100 µM (inactive)	> 100		> 100 µM (inactive)	> 100 µM (inactive)	> 100 µM (inactive)	> 100 µM (inactive)	> 100 µM (inactive)	> 100 µM (inactive)	83 µM (inactive)	> 100 µM (inactive)	> 100 µM (inactive)		
CC(C)C(C(=O)N(C)C(Cc1ccccc1)C(=O)N(C)C(C(=O)N(C)C(C(=O)N1CCCC1C(=O)OC(C)(C)C)C(C)C)C(C)C)N(C)C (stereo not drawn) (ξNMe2Val-[NMeF][NMeV][NMeV]P-OtBu; configuration not given here)	35.2 µM (inactive)	64 µM (inactive)	22.8 µM (inactive)	51.6	90.6 µM (inactive)	31.6 µM (inactive)	13.9 µM (inactive)	94.6 µM (inactive)	97.3 µM (inactive)			25.4 µM (inactive)	43 µM (inactive)	> 100 µM (inactive)		64.4 µM (inactive)
